# Assay results from publication PMC2770570 (BMC Cancer, 2009).
# Entries after “also recorded” stand apart in the source; their conditions may differ. Structures can show the parent of a compound that is named as a salt.
# Key:
# KAT-18 cells [1] = assay: Growth of KAT-18 cells transfected with OGFr siRNA or scrambled siRNA; assay type: cell-based, human
# Protocol: (§1) The OGFr-targeted siRNAs (antisense:5'-[…]-3'; sense: 5'-[…]-3') were designed and obtained as ready-annealed, purified duplex probes from Ambion (Austin, TX). For transfection, 5 × 10^4 KAT-18 cells per well were seeded in 6-well plates containing 1 ml of serum-containing media without antibiotics. In each well, 20 nM OGFr-siRNA or control siRNA solutions in serum-free media were added. […] At 72 h cells were collected for computing growth. Two independent experiments were conducted. The scrambled siRNAs were purchased from Ambion.
# KAT-18 cells [2] = assay: DNA synthesis (BrdU incorporation) in KAT-18 cells; assay type: cell-based, human; settings: 10^-6 M, 72 h; 30 μM BrdU 3 h prior to fixing (Fig. 5)
# Protocol: To examine DNA synthesis, KAT-18 cells were seeded onto 22 mm diameter coverglasses placed in 6-well plates (3 × 10^3 cells/coverglass), and treated with compounds for 72 h; media and drugs were replaced daily. Three h prior to fixing cells, 30 μM BrdU (Sigma Chemicals, Indianapolis, IN) was added to cultures. Cells were rinsed, fixed in 10% neutral buffered formalin for 10 min, and stained with antibodies to BrdU (anti-BrdU-BOD, Roche/Invitrogen). At least 1000 cells/treatment using at least 2 coverglasses/treatment were counted, and the number of positive cells recorded. Labeling indexes were calculated as the number of positive stained cells divided by total cells.
# KAT-18 cells [3] = assay: Apoptosis (TUNEL) in KAT-18 cells; assay type: cell-based, human; settings: 72 h, data not shown
# Protocol: Cells were harvested after 72 h of drug treatment, and TUNEL assays conducted according to manufacturer's recommendations.
# KAT-18 cells [4] = assay: Necrosis (trypan blue) in KAT-18 cells; assay type: cell-based, human; settings: data not shown
# Protocol: Necrosis was recorded as the number of positive trypan blue cells in any cell growth assay.
# KTC-1 cells = assay: Cell proliferation assay (cell number), KTC-1 papillary thyroid cancer cells; assay type: cell-based, human; settings: 10^-6 M, 72 h (Fig. 6B)
# Protocol: (§2) The ATC cell line, KAT-18, was generously provided by Dr. K.B. Ain, The University of Kentucky, Lexington, KY) and the FTC cell line, WRO 82-1, was established by Dr. G. Juillard (University of California at Los Angeles, CA). The poorly differentiated papillary thyroid carcinoma cell line, KTC-1 [31], was a generous gift of Dr. James A. Fagin (Memorial Sloan Kettering Cancer Center, New York, NY). The KAT-18 cells were grown in phenol-red free RPMI 1640 media (GIBCO/Invitrogen, Carlsbad, CA), and the WRO 82-1 and KTC-1 cells were grown in standard RPMI 1640 media supplemented with 1% non-essential amino acids. All media were supplemented with 10% fetal calf serum, 2 mM L-glutamine, 1.2% sodium bicarbonate, and antibiotics (5,000 Units/ml penicillin, 5 mg/ml streptomycin, 10 mg/ml neomycin). The cell cultures were maintained in a humidified atmosphere of 5% CO2 at 37°C. […]
# (§3) Cells were seeded at equivalent amounts into 6- or 24-well plates (Falcon) and counted 24 h later (time 0) to determine plating efficiency. […] Cells were harvested by trypsinization with 0.25% trypsin/0.53 mM EDTA, centrifuged, and counted with a hemacytometer. Cell viability was determined by trypan blue staining. At least two aliquots per well, and 2-4 wells/treatment, were counted for each experiment. […]
# WRO 82-1 cells = assay: Cell proliferation assay (cell number), WRO 82-1 follicular thyroid cancer cells; assay type: cell-based, human; settings: 10^-6 M, 72 h (Fig. 7B)
# Protocol: as §2, §3
# KAT-18 cells [5] = assay: Cell proliferation assay (cell number), KAT-18 anaplastic thyroid cancer cells; assay type: cell-based, human
# Protocol: The ATC cell line, KAT-18, was generously provided by Dr. K.B. Ain, The University of Kentucky, Lexington, KY) and the FTC cell line, WRO 82-1, was established by Dr. G. Juillard (University of California at Los Angeles, CA). The poorly differentiated papillary thyroid carcinoma cell line, KTC-1 [31], was a generous gift of Dr. James A. Fagin (Memorial Sloan Kettering Cancer Center, New York, NY). […] The cell cultures were maintained in a humidified atmosphere of 5% CO2 at 37°C. All cell lines were free of Mycoplasma and confirmed by single nucleotide polymorphism array analysis to be unique follicular cell-derived thyroid cancer cell lines.
# Media and compounds were replaced daily. […] Cell viability was determined by trypan blue staining. At least two aliquots per well, and 2-4 wells/treatment, were counted for each experiment. Two to five experiments were conducted for each measure performed.
# OGFr mRNA = assay: Northern blot analysis of OGFr after siRNA transfection of KAT-18 cells; assay type: cell-based, human; settings: 20 nM siRNA; OGFr/GAPDH ratio by densitometry (Fig. 4A)
# Protocol: as §1
# Some cultures were transfected with siRNAs and then harvested 72 h later for Northern analysis. Total RNA was extracted using the Paris Kit (Ambion), separated on an agarose gel, and mRNA transferred to nylon membrane (Immobilon, Bio-Rad Laboratories, Hercules, CA). Membranes were probed with ^32P-dCTP- OGFr cDNA. To determine equal loading, blots were stripped and reprobed with radiolabeled GAPDH and optical density of each band was determined by densitometry and analyzed by QuickOne (Bio-Rad Laboratories). Each value was normalized to GAPDH from the same blot.
# OGFr protein = assay: Semi-quantitative immunocytochemistry of OGFr protein after siRNA transfection of KAT-18 cells; assay type: cell-based, human; settings: 72 h after transfection; mean staining intensity, approximately 50 cells/group (Fig. 4B)
# Protocol: as §1
# KAT-18 cells were seeded onto coverglasses, transiently transfected with OGFr-siRNA, and 72 h later stained with polyclonal antibodies to OGFr in order to detect the level of protein knockdown. OGFr protein levels were assessed by semi-quantitative immunocytochemistry whereby images were taken at the same exposure time with special care not to photobleach samples. The mean intensity of staining was determined for approximately 50 cells/group.
# OGFr = biological target: T1, OGFr (Homo sapiens, UniProt Q9NZT2); assay: receptor binding assay
# T1 chain: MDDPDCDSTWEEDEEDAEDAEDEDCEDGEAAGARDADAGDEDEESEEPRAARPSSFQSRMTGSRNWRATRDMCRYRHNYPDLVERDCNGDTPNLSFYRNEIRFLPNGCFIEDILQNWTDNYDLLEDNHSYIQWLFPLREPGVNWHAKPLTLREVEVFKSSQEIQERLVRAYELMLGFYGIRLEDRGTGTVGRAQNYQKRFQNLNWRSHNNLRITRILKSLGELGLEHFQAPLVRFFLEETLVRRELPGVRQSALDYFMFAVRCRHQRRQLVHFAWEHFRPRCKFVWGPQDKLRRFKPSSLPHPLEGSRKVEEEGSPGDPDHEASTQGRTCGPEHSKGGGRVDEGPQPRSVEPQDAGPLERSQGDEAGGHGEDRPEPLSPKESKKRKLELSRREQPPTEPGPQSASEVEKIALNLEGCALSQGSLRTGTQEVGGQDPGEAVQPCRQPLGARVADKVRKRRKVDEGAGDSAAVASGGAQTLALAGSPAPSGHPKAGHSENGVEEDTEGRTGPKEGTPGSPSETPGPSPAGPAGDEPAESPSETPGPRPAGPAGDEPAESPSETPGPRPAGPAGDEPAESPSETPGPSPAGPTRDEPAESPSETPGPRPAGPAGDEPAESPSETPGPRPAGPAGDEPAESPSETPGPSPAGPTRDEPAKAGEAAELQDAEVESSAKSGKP
# [6] = 10^-6 M NTX, cultures receiving OGFr siRNA (Fig. 4C)
# [7] = 10^-6 M, 72 h, opioid specificity experiment (Fig. 3A)
# [8] = 10^-6 M OGF, cells transfected with OGFr siRNA (Fig. 4C)
molecule,measurement,setting,value
"O=C1CC[C@@]2(O)[C@H]3Cc4ccc(O)c5c4[C@@]2(CCN3CC2CC2)[C@H]1O5 [NTX, naltrexone]",cell number vs OGFr siRNA plus vehicle,KAT-18 cells [1]; [6],did not differ from cells receiving OGFr siRNA plus vehicle
same,increase in cell number vs wildtype cells,KAT-18 cells [1]; [6],70%
same,increase in cell number vs wildtype cells receiving vehicle,"KAT-18 cells [1]; 10^-6 M NTX, untreated and scrambled siRNA cultures (Fig. 4C)",32%
same,increase in DNA synthesis (BrdU) vs control,KAT-18 cells [2],25%
same,apoptosis relative to positive control samples,KAT-18 cells [3],negligible
same,number of apoptotic cells vs control,KAT-18 cells [3],No differences in the number of apoptotic or necrotic cells
same,necrosis,KAT-18 cells [4],negligible
same,number of necrotic cells vs control,KAT-18 cells [4],No differences in the number of apoptotic or necrotic cells
same,increase in cell number from control,KTC-1 cells,30%
same,increase in cell number from control,WRO 82-1 cells,30%
"CN1CC[C@]23c4c5ccc(O)c4O[C@H]2[C@@H](O)C=C[C@H]3[C@H]1C5 [morphine, morphine sulfate]",effect on cell proliferation vs control,KAT-18 cells [5]; [7],Only OGF altered cell proliferation significantly
C=CCN1CC[C@]23c4c5ccc(O)c4O[C@H]2C(=O)CC[C@@]3(O)[C@H]1C5 [naloxone],effect of naloxone on the OGF-induced depression in cell acquisition,KAT-18 cells [5]; KAT-18 cells,blocked the depression in cell acquisition
same,change in cell number vs control,"KAT-18 cells [5]; naloxone 10^-6 M with or without OGF 10^-6 M, 72 h (Fig. 2C)",no change in cell number; also recorded: did not have any influence on cell replication
"[D-Ala^2, MePhe^4, Glycol^5]-enkephalin [DAMGO]",effect on cell proliferation vs control,KAT-18 cells [5]; [7],Only OGF altered cell proliferation significantly
"[D-Pen^2,5]-enkephalin [DPDPE]",effect on cell proliferation vs control,KAT-18 cells [5]; [7],Only OGF altered cell proliferation significantly
[Met^5]-enkephalin [OGF],reduction in cell number from control,"KAT-18 cells [5]; 10^-4 M, 72 h, dose-response (Fig. 2A)",38%
same,reduction in cell number from control,"KAT-18 cells [5]; 10^-5 M, 72 h, dose-response (Fig. 2A)",13%
same,reduction in cell number from control,"KAT-18 cells [5]; 10^-6 M continuously, at 96 h (Fig. 2D)",16%
same,reduction in cell number from control,"KAT-18 cells [5]; 10^-6 M continuously, at 120 h (Fig. 2D)",28%
same,reduction in cell number from control,"KAT-18 cells [5]; 10^-6 M for 72 h, then media without OGF, at 96 h (Fig. 2D)",6%
same,reduction in cell number from control,"KAT-18 cells [5]; 10^-6 M for 72 h, then media without OGF, at 120 h (Fig. 2D)",8%
same,reduction in cell number from control,"KAT-18 cells [5]; 10^-6 M, 72 h, dose-response (Fig. 2A)",14%
same,reduction in cell number from control,"KAT-18 cells [5]; 10^-6 M, 72 h, naloxone experiment (Fig. 2C)",20%
same,decrease in cell number from control,KAT-18 cells [5]; [7],33%
same,reduction in cell number from control,"KAT-18 cells [5]; 10^-6 M, 72 h, reversibility study (Fig. 2D)",22%
same,effect on cell number vs control,"KAT-18 cells [5]; 10^-7 M, 72 h, dose-response (Fig. 2A)",no significant effect on cell number
same,duration of growth repression in presence of drug,KAT-18 cells [5]; KAT-18 cells,up to 120 h
same,time to observed growth repression after initiating drug exposure,KAT-18 cells [5]; KAT-18 cells,≤ 24 h
same,"maximum reduction in cell number (""by as much as"")","KAT-18 cells [5]; KAT-18 cells, abstract",≤ 38%
same,"cell number, OGF vs sterile water",KAT-18 cells [1]; [8],did not differ in cell number from each other
same,effect on cell number,KAT-18 cells [1]; [8],no effect
same,reduction in cell number,"KAT-18 cells [1]; 10^-6 M OGF, untransfected cultures and those transfected with scrambled siRNAs (Fig. 4C)",30%
same,decrease in proportion of BrdU labeled cells vs control,KAT-18 cells [2],28%
same,number of apoptotic cells vs control,KAT-18 cells [3],No differences in the number of apoptotic or necrotic cells
same,necrosis,KAT-18 cells [4],negligible
same,number of necrotic cells vs control,KAT-18 cells [4],No differences in the number of apoptotic or necrotic cells
same,reduction in cell number from control,KTC-1 cells,31%
same,reduction in cell number from control,WRO 82-1 cells,17%
"antisense:5'-uagaaacucagguuuggcg-3'; sense: 5'-cgccaaaccugaguuucua-3' (sense CGCCAAACCUGAGUUUCUA; antisense UAGAAACUCAGGUUUGGCG; chemistry not fully specified) [OGFr siRNA, OGFr-targeted siRNAs, ready-annealed, purified duplex probes from Ambion]",OGFr level relative to cells treated with vehicle only,OGFr mRNA,less than 25%
same,decrease in OGFr protein expression relative to untransfected and scrambled siRNA cells,OGFr protein,47%
same,increase in cell number vs vehicle only and scrambled siRNA,"KAT-18 cells [1]; 20 nM siRNA, 72 h (Fig. 4C)",approximately 70%
same,effectiveness of OGFr siRNA knockdown in increasing cell number relative to NTX,KAT-18 cells [1]; KAT-18 cells,over twice as effective
"dynorphin A1-8 (YGGFLRRI; Dynorphin A(1-8); UniProt P01213 207-214, looked up)",effect on cell proliferation vs control,KAT-18 cells [5]; [7],Only OGF altered cell proliferation significantly
endomorphin 1,effect on cell proliferation vs control,KAT-18 cells [5]; [7],Only OGF altered cell proliferation significantly
endomorphin 2,effect on cell proliferation vs control,KAT-18 cells [5]; [7],Only OGF altered cell proliferation significantly
"β-endorphin (YGGFMTSEKSQTPLVTLFKNAIIKNAYKKGE; Beta-endorphin; UniProt P01189 237-267, looked up)",effect on cell proliferation vs control,KAT-18 cells [5]; [7],Only OGF altered cell proliferation significantly
YGGFM [opioid growth factor (OGF)],Kd,OGFr,3.5 nM
